# System: Mycobacterium tuberculosis
# Experiment: Antibacterial activity against Mycobacterium bovis BCG by microplate alamar blue assay
# Type: functional
# Details: variant bovis BCG
smiles,measurement,value
CCCCCC[C@H](CN1CCC(COc2cccc(C(=O)c3ccc(Cl)cc3)c2)CC1)OC(N)=O,MIC,3 µg/mL
CCCCCC[C@H](CN1CCC(COc2cccc(/C(=N\OC)c3ccc(Cl)cc3)c2)CC1)OC(N)=O,MIC,2.95 µg/mL

# From ChEMBL document CHEMBL2046305, “Discovery of selective menaquinone biosynthesis inhibitors against Mycobacterium tuberculosis” (J Med Chem, 2012)
